Laboratory results published in patent US7858657B2 (Proix Pharmaceutical Corp., priority 2004, dated 2010).
Where “and” joins values, the source holds several entries; their conditions need not be identical. Identical values can stand only once. Marks after values point to notes of the source that are not given here.

Key:
[1] = biological target: T1, p120γ (Homo sapiens, UniProt P48736); assay: Inhibition of recombinant PtdIns-3-kinase, [32P]-ATP dependent phosphorylation of PtdIns; type: biochemical; settings: recombinant enzyme
T1 construct: purchased Upstate (Charlottesville, Va.)
T1 sequence (P48736 whole entry): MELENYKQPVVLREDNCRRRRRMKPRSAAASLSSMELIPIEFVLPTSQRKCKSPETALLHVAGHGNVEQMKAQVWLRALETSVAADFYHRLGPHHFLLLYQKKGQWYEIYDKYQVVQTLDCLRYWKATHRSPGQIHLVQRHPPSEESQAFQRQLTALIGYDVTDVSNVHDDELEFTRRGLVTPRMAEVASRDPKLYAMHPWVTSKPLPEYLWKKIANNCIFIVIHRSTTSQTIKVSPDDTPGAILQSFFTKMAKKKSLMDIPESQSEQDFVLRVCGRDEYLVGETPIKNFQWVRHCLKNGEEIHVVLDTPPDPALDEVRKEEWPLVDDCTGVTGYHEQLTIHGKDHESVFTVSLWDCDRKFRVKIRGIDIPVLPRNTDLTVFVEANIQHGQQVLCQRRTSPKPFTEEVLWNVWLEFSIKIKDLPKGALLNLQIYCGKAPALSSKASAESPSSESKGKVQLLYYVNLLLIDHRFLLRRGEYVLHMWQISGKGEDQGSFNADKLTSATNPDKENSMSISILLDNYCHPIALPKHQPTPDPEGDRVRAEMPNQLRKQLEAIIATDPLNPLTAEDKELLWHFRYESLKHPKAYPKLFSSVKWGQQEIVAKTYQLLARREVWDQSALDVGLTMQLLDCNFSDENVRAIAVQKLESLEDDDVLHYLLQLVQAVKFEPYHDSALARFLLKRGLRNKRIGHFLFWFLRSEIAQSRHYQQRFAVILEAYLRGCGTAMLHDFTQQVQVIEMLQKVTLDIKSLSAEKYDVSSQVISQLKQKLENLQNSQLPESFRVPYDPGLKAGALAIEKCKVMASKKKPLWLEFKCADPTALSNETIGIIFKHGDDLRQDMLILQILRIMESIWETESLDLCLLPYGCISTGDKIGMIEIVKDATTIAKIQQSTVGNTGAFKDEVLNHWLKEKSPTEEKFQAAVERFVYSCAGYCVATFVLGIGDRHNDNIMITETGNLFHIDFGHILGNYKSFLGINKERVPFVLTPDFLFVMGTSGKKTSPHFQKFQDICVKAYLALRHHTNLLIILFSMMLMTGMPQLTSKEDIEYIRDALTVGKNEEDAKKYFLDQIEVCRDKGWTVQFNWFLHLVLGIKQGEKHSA
Source text: (§1) Materials and Methods. Compounds. […] Rabbit purified anti-phosphoSer473-Akt antibody, anti-Akt antibody, antiphospho Tyr1086-EGF-receptor antibody and anti-EGFR antibody were obtained from Cell Signaling Technology (Beverly, Mass.). Human recombinant p110α/p85α, p110β/p85α, p120 (and p110*/p85α PtdIns-3-kinases were obtained from Upstate (Charlottesville, Va.). Metformin hydrochloride was obtained from Spectrum Chemical (Gardena, Calif.), pioglitazone hydrochloride and recombinant human insulin from Sigma Chemical (St. Louis).
(§2) Measurement of PtdIns-3-kinase.

[2] = biological target: T2, p110δ/p85α (Homo sapiens, UniProt O00329); assay: as above; type: biochemical; settings: recombinant enzyme
T2 construct: purchased Upstate (Charlottesville, Va.)
T2 sequence (O00329 whole entry): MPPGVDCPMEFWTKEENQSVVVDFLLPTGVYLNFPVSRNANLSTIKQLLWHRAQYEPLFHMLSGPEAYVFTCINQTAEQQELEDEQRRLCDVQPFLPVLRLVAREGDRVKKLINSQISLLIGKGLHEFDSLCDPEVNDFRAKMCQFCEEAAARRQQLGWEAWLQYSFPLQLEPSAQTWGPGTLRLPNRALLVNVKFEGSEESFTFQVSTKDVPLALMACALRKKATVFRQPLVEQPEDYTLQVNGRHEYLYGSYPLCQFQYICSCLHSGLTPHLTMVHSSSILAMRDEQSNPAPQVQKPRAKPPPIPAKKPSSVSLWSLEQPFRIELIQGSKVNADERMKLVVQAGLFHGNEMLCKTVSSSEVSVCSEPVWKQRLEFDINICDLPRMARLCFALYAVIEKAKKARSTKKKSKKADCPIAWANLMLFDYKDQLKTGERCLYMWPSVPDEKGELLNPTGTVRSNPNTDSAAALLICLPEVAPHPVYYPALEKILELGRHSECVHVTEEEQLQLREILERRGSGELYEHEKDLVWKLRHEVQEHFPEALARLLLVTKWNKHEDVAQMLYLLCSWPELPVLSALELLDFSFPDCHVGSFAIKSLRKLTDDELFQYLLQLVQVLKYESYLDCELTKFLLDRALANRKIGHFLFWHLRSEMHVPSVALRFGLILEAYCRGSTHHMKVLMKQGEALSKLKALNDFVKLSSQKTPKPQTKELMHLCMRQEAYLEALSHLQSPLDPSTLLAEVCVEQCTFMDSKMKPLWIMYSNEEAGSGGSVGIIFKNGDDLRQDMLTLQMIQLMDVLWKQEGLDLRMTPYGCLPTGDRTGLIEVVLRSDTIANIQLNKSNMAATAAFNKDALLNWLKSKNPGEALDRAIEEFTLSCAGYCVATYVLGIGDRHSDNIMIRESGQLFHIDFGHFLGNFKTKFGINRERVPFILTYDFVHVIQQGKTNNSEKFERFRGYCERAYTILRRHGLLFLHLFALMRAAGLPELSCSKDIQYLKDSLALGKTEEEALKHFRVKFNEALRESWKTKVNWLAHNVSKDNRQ
T2 sequence (P27986 whole entry partner): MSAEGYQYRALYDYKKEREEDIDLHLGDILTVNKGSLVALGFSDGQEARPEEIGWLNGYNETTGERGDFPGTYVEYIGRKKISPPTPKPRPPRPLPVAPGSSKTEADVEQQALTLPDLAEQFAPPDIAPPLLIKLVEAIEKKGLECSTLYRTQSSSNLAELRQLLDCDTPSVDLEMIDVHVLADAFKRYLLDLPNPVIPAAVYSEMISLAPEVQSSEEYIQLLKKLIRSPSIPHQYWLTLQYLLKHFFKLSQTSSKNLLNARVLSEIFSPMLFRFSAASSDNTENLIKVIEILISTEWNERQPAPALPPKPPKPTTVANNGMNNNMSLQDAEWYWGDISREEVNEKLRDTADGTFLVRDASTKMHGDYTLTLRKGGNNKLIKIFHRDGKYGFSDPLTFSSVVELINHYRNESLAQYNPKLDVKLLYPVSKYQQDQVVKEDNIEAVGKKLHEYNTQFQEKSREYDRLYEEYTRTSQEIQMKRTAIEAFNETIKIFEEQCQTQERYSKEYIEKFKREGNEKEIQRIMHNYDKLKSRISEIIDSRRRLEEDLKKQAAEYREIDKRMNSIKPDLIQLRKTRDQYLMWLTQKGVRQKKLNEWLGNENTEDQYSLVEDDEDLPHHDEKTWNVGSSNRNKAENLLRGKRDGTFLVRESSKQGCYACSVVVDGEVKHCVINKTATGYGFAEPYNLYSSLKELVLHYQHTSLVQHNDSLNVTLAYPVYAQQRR
Source text: as §1, §2

[3] = biological target: T3, p110β/p85α (Homo sapiens, UniProt P42338); assay: as above; type: biochemical; settings: recombinant enzyme
T3 construct: purchased Upstate (Charlottesville, Va.)
T3 sequence (P42338 whole entry): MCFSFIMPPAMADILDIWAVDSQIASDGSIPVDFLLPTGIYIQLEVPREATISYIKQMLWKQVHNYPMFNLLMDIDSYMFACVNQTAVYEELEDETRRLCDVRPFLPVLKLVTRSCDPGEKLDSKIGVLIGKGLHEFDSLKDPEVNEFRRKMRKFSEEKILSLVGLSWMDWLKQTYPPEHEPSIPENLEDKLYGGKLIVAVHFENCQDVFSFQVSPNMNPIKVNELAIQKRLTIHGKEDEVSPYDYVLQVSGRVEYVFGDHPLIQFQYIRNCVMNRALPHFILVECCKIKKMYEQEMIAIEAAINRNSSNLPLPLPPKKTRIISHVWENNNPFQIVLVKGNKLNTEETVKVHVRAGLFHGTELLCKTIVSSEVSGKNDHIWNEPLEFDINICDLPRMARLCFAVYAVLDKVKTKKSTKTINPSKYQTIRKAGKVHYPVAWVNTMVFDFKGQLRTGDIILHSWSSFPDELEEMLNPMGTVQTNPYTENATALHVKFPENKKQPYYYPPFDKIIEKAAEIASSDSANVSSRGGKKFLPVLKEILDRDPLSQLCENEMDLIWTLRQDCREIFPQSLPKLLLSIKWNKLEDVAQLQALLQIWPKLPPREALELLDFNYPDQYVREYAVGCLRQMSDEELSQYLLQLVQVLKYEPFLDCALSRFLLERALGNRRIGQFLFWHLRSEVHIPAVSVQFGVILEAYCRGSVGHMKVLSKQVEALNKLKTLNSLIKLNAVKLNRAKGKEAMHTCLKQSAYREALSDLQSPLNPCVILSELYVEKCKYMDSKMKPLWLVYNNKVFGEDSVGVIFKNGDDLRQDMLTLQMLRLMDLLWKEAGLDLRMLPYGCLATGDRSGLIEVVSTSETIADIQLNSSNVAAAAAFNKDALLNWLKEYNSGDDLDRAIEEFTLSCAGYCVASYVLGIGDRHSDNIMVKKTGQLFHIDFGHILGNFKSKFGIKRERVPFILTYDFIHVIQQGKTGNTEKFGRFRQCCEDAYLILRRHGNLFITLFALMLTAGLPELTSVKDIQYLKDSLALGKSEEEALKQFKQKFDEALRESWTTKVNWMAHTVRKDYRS
T3 sequence (P27986 whole entry partner): as the sequence (P27986 whole entry partner) above
Source text: as §1, §2

[4] = Nonfasting glucose levels after long term PX-866; type: in vivo, mice; settings: PX-866 9 mg/kg iv every other day for 15 doses; ±S.E., n=4
[5] = Glucose tolerance studies; settings: mean ± SE of 4 mice
Protocol: Glucose Tolerance Studies. Female C5781/6 mice were fasted overnight and administered a single dose of D(+) glucose (1 mg/kg) as a 0.1 g/ml solution po. […] Human recombinant insulin was administered at 0.075:g/kg ip (26) at the same time as glucose administration.
Values are the mean±SE of 4 mice per group.

[6] = test system: Panc-1 pancreatic; assay: Antitumor activity of cytotoxic drugs alone or combined with PX-866, Panc-1 pancreatic (Table 2); type: in vivo; settings: for Alone Growth delay days / Alone TGI % / Alone log cell kill: size 75 mm^3
[7] = Toxicity studies, blood counts in C57B1/6 mice; type: in vivo; settings: PX-866 3 mg/kg po every other day for 15 doses
Protocol: Toxicity Studies. […] The mice were killed 24 hr after the last dose and changes in body weight, blood lymphocyte, neutrophil, red blood cell, platelet counts, serum glucose, aspartate amino transferase (AST), and amino alanine transferase (ALT) were measured.

[8] = test system: A-549 lung; assay: Antitumor activity of wortmannin analogs, A-549 lung tumor (Table 1); type: in vivo
[9] = test system: mouse bone marrow; assay: Bone marrow colony formation from treated mice; type: in vivo; settings: C57B1/6 mice, PX-866 3 mg/kg po every other day for 15 doses
Protocol: Bone Marrow Colony Formation. After sacrifice, mouse bone marrow was extracted from each femur and red blood cells lysed with 0.2% hypotonic NaCl followed by the addition of a 1.6% hypertonic NaCl. Approximately 20,000 cells were plated in 1 ml of Methocult™ GF M3434 (Stemcell Technologies Inc, Vancouver, BC, Canada) containing 1% methylcellulose in […], 15% fbs, 1% bovine serum albumin, 10:g/ml recombinant human insulin, 200:g/ml humantransferrin, […] β-mercaptoethanol, 2 mM L-glutamine, 50 ng/ml rm stem cell factor, 10 ng/ml recombinant mouse interleukin-3, 10 ng/ml recombinant human interleukin-6, and 3 units/ml recombinant erythropoietin. Cells were plated in triplicate and grown at 37/C and 5% CO2 in a humid environment for 14 days before scoring. Colonies (>40 cells/colony) or clusters (3-40 cells) were scored and growth of colony-forming unit granulocyte, erythroid, macrophage, megakaryocyte (CFU-GEMM; burst-forming units-erythroid (BFU-E), colony-forming units granulocyte macrophage (CFU-GM), assessed using standard criteria. Qualitative observations were made on background levels of single cells.

[10] = test system: A-549 human nsc lung cancer xenografts; assay: Antitumor studies, PX-866 and gefitinib in A-549 xenografts; type: in vivo, scid mice; settings: for Tumor T/C %, PX-844 4 hrs before gefitinib / Tumor T/C %: 100 mm3 tumors; for Tumor T/C %: end of dosing period
Protocol: Antitumor Studies. […] When the tumors reached 100 or 600 mm3 the mice were stratified into groups of 8 animals having approximately equal mean tumor volumes and drug administration was started. […] Animals were weighed weekly and tumor diameters were measured twice weekly at right angles (d short and d long) with electronic calipers and tumor volumes calculated by the formula volume=(dshort)2×(dlong))2. When the tumor reached 2,000 mm3 or more, or became necrotic the animals were euthanized.
In vivo antitumor studies. […] Tumors were allowed to grow to a mean volume of […] before drug treatment was started every other day for 14 doses. Antitumor activity is expressed as the % volume of the treated tumor/control tumor (T/C %) at the end of the dosing period. There were 8 mice in each group and all differences are p<0.01.

[11] = biological target: T4, p110α/p85α (Bos taurus, UniProt P32871); assay: Inhibition of recombinant PtdIns-3-kinase, [32P]-ATP dependent phosphorylation of PtdIns; type: biochemical, bovine; settings: recombinant enzyme; read-out: IC50, PtdIns-3-kinase p110α/p85α
T4 construct: purchased Upstate (Charlottesville, Va.)
Source text: as §1, §2

[12] = test system: tumor phospho-Akt (A-549 tumor xenografts); assay: Pharmacodynamic studies, tumor phospho-Akt in A-549 xenografts; type: in vivo, scid mice
Source text: Pharmacodynamic Studies. […] Tumor Akt activity was expressed as the ratio of phospho-Ser473-Akt to total Akt.

[13] = test system: A-673 thabdomyosarcom xenografts; assay: Antitumor effect of PX-866 with bevacizumab, A-673 xenografts; type: in vivo; settings: PX-866 intravenously or orally every three days in combination with bevacizumab (FIG. 14)
Protocol: PX-866 was administered at varying doses intravenously or orally every three days alone or in combination with bevacizumab.

[14] = PX-866 iv 15 mg/kg Q3D × 3 combined with gemcitabine ip 150 mg/kg Q3D × 3
[15] = PX-866 po 5 mg/kg Q3D × 3 combined with gemcitabine ip 150 mg/kg Q3D × 3
[16] = initial tumor vol 60 mm^3, 4 mg/kg/day po Q1D × 9
[17] = initial tumor vol 60 mm^3, 12 mg/kg/day iv Q1D × 9
[18] = initial tumor vol 65 mm^3, 6 mg/kg/day ip Q1D × 9
[19] = initial tumor vol 65 mm^3, 9 mg/kg/day ip Q1D × 9

## C=CCN(/C=C1/C(=O)O[C@H](COC)[C@@]2(C)C1=C(O)C(=O)C1=C2[C@H](OC(C)=O)C[C@]2(C)C(=O)CC[C@@H]12)CC=C [PX-866]
[1]
  IC50: 9 nM
[2]
  IC50: 2.7 nM
[3]
  IC50: > 300 nM
[4]
  nonfasting glucose levels: 269.4 ± 27.8 mg/dL
[5]; PX-866 3 mg/kg po QOD × 20, glucose 24 hours after the last dose
  plasma glucose AUC0-180 min: 520 ± 14^a mg · min · ml^−1
[5]; PX-866 10 mg/kg po single dose, glucose 4 hours later, no other drug
  plasma glucose AUC0-180 min: 533 ± 17^a mg · min · ml^−1
[6]; [14]
  Combined Growth delay days: 8 days
  Combined TGI %: 49%
  Combined log cell kill: 0.2
[6]; [15]
  Combined Growth delay days: 19 days
  Combined TGI %: 60%
  Combined log cell kill: 0.5
[6]; PX-866 iv 15 mg/kg Q3D × 3
  Alone Growth delay days: 4 days
  Alone TGI %: 16%
  Alone log cell kill: 0.1
[6]; PX-866 po 5 mg/kg Q3D × 3
  Alone Growth delay days: 0 days
  Alone TGI %: 14%
  Alone log cell kill: 0
[7]
  change in any other blood elements: no significant change
[7]; ±S.E., n=4
  neutrophil counts: 3.7±1.8 K/:l
[8]; [16]
  Growth Delay: 6 days
  Log10 cell kill: 0.9
[8]; initial tumor vol 60 mm^3, 4 mg/kg/day po Q1D × 9, day 21
  T/C % (optimal test/control): 47 (21) %
[8]; [17]
  Growth Delay: 5 days
  Log10 cell kill: 0.7
[8]; initial tumor vol 60 mm^3, 12 mg/kg/day iv Q1D × 9, day 21
  T/C % (optimal test/control): 45 (21) %
[8]; [18]
  Growth Delay: 4 days
  Log10 cell kill: 0.2
[8]; initial tumor vol 65 mm^3, 6 mg/kg/day ip Q1D × 9, day 32
  T/C % (optimal test/control): 62 (32) %
[8]; [19]
  Growth Delay: 8 days
  Log10 cell kill: 0.4
[8]; initial tumor vol 65 mm^3, 9 mg/kg/day ip Q1D × 9, day 32
  T/C % (optimal test/control): 26 (32) %
[9]
  erythroid lineage CFU-GEMM, BFU-E or CFU-E: no significant change
[9]; ±S.E., n=4
  myeloid CFU-GM: 168±59 colonies per 60,000 bone marrow cells plated
[10]; PX-866 IV 4 mg/kg QOD × 14, 4 hr before gefitinib 75 mg/kg po
  Tumor T/C %, PX-844 4 hrs before gefitinib: 20.5%
[10]; PX-866 IV 4 mg/kg QOD × 14 alone
  Tumor T/C %: 65.3%
[10]; PX-866 IV 9 mg/kg QOD × 14, 4 hr before gefitinib 75 mg/kg po
  Tumor T/C %, PX-844 4 hrs before gefitinib: 22% and 22.3%
[10]; PX-866 IV 9 mg/kg QOD × 14 alone, 9 mg/kg
  Tumor T/C %: 31% and 31.5%
[10]; PX-866 PO 1 mg/kg QOD × 14, 4 hr before gefitinib 75 mg/kg po
  Tumor T/C %, PX-844 4 hrs before gefitinib: 40.8%
[10]; PX-866 PO 1 mg/kg QOD × 14 alone
  Tumor T/C %: 54.8%
[10]; PX-866 PO 2.5 mg/kg QOD × 14, 4 hr before gefitinib 75 mg/kg po
  Tumor T/C %, PX-844 4 hrs before gefitinib: 18% and 18.1%
[10]; PX-866 PO 2.5 mg/kg QOD × 14 alone, 2.5 mg/kg
  Tumor T/C %: 41% and 40.8%
[10]; PX-866 with gefitinib, 600 mm3 A-549 tumor xenografts (FIG. 7B)
  combination antitumor activity, large tumors: Increased combination antitumor activity
[10]; administered long term, single agent (discussion)
  tumor T/Cs: around 50%
[10]; alternating day schedule, preliminary studies, data not shown
  activity of combination with gefitinib by timing: more active when administered 4 hr before rather than 24 hr after gefitinib
[11]
  IC50: 5.5 nM
[12]; Mus musculus, A549, iv, 120 h, read-out: inhibition of tumor phospho-Akt
  inhibition at 12 mg/kg: 51%
[12]; Mus musculus, A549, po, 120 h, read-out: inhibition of tumor phospho-Akt
  inhibition at 3 mg/kg: 48%
[12]; combination of gefitinib and PX-866
  effect upon tumor phospho-Akt: inhibited both
[13]
  antitumor activity with bevacizumab: significantly increased the antitumor activity of bevacizumab
